We go through 5 compounds from ChEMBL document CHEMBL5715260, “Selectivity Literature for EUbOPEN Chemogenomic Library” (2024).

Design in all cases: recommended concentration 1 uM
Assay [1] deals with Muscarinic acetylcholine receptor M2 (Homo sapiens) (UniProt P08172). Description: Selectivity interaction (Ricerca selectivity panel) EUB0001125a CHRM2. The following applies: at 1 µM.
In assay [2] the target is Alpha-1A adrenergic receptor (Homo sapiens) (UniProt P35348). Description: Selectivity interaction (Ricerca selectivity panel) EUB0001125a ADRA1A. Particulars: at 1 µM.
For assay [3], the target named is Alpha-1B adrenergic receptor (Homo sapiens) (UniProt P35368). Nature of the assay: Selectivity interaction (Ricerca selectivity panel) EUB0001125a ADRA1B. Particulars: at 1 µM.
Assay [4] deals with 5-hydroxytryptamine receptor 2A (Homo sapiens, UniProt P28223). Nature of the assay: Selectivity interaction (US National Institute of Mental Health's Psychoactive Drug Screen Program Selectivity Panel) EUB0001125a HTR2A.
The target in assay [5] is Alpha-1A adrenergic receptor (Homo sapiens, UniProt P35348). Nature of the assay: Selectivity interaction (US National Institute of Mental Health's Psychoactive Drug Screen Program Selectivity Panel) EUB0001125a ADRA1A.
Assay [6] has as its target Alpha-2C adrenergic receptor (Homo sapiens, UniProt P18825). Description: Selectivity interaction (US National Institute of Mental Health's Psychoactive Drug Screen Program Selectivity Panel) EUB0001125a ADRA2C.
Assay [7] deals with Muscarinic acetylcholine receptor M1 (Homo sapiens, UniProt P11229). Nature of the assay: Selectivity interaction (US National Institute of Mental Health's Psychoactive Drug Screen Program Selectivity Panel) EUB0001125a CHRM1.
Assay [8] has as its target Muscarinic acetylcholine receptor M2 (Homo sapiens, UniProt P08172). Nature of the assay: Selectivity interaction (US National Institute of Mental Health's Psychoactive Drug Screen Program Selectivity Panel) EUB0001125a CHRM2.
Assay [9] addresses Muscarinic acetylcholine receptor M4 (Homo sapiens, UniProt P08173). Description: Selectivity interaction (US National Institute of Mental Health's Psychoactive Drug Screen Program Selectivity Panel) EUB0001125a CHRM4.
The target of a further assay is Caspase-2 (Homo sapiens, UniProt P42575). Description: Selectivity interaction (Eurofins (enzymatic assay)) EUB0002201a CASP2.
The next assay concerns the target Caspase-3 (Homo sapiens, UniProt P42574). Nature of the assay: Selectivity interaction (Eurofins (enzymatic assay)) EUB0002201a CASP3.
Assay [10] has as its target T1, Caspase-5 (Homo sapiens, UniProt P51878).
T1 sequence (P51878 whole entry): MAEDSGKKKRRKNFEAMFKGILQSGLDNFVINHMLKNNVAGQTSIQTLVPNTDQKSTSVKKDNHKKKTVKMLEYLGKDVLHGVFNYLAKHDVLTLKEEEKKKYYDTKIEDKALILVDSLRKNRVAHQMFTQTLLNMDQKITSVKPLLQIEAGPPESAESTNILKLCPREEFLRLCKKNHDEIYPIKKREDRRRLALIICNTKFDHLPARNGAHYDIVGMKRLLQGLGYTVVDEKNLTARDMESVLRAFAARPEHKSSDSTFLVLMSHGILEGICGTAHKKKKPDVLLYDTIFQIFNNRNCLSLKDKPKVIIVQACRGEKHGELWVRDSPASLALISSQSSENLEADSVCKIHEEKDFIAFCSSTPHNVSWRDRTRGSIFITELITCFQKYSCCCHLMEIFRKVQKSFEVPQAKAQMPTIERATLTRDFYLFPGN
Description: Selectivity interaction (Eurofins (enzymatic assay)) EUB0002201a CASP5.

A further assay deals with Caspase-6 (Homo sapiens, UniProt P55212). Nature of the assay: Selectivity interaction (Eurofins (enzymatic assay)) EUB0002201a CASP6.
Another assay has as its target T2, Caspase-7 (Homo sapiens, UniProt P55210).
T2 sequence (P55210 whole entry): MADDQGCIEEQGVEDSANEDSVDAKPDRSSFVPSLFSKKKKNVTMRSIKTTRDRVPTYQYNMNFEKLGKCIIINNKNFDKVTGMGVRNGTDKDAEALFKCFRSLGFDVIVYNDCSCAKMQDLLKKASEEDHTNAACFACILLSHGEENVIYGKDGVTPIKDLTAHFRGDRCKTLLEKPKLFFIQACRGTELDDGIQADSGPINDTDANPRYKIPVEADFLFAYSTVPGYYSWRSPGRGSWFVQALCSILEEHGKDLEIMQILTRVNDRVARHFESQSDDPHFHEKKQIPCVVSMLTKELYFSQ
Nature of the assay: Selectivity interaction (Eurofins (enzymatic assay)) EUB0002201a CASP7.

The next assay deals with Caspase-8 (Homo sapiens, UniProt Q14790). Nature of the assay: Selectivity interaction (Eurofins (enzymatic assay)) EUB0002201a CASP8.
In assay [11] the target is T3, Caspase-9 (Homo sapiens, UniProt P55211).
T3 sequence (P55211 whole entry): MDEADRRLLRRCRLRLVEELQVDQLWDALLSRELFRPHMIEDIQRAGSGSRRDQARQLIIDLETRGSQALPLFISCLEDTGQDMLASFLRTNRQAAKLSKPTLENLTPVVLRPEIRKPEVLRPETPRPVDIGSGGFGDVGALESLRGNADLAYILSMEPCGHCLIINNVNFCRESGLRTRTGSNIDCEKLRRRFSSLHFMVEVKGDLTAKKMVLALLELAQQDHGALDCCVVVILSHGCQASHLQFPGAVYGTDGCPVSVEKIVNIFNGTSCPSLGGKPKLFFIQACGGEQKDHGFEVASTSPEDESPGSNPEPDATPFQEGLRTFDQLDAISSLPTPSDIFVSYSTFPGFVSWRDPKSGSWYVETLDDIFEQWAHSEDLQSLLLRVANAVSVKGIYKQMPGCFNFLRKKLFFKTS
Description: Selectivity interaction (Eurofins (enzymatic assay)) EUB0002201a CASP9.

Assay [12] deals with T4, Caspase-10 (Homo sapiens, UniProt Q92851).
T4 sequence (Q92851 whole entry): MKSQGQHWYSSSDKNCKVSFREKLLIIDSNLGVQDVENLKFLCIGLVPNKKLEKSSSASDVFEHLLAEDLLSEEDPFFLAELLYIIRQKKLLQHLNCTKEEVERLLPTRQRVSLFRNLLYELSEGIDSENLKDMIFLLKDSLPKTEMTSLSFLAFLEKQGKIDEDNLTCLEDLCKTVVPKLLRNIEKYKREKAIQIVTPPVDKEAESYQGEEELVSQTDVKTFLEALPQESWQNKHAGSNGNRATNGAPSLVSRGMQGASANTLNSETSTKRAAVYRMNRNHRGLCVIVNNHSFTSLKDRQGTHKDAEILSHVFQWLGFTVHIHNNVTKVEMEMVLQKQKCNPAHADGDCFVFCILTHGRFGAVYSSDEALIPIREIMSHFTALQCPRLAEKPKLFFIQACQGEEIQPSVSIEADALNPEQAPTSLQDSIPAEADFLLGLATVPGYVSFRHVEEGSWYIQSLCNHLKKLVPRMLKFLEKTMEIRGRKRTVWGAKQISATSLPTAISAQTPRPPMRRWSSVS
Nature of the assay: Selectivity interaction (Eurofins (enzymatic assay)) EUB0002201a CASP10.

Assay [13] addresses T4, Caspase-10. Description: (§1) Selectivity interaction (Enzymatic assay) EUB0002198aAD CASP10.
For assay [14], the target named is T4, Caspase-10. The assay is described as §1. This is another data set of the same source.
The next assay deals with Caspase-4 (Homo sapiens, UniProt P49662). Description: Selectivity interaction (Enzymatic assay) EUB0002198aAD CASP4.
In assay [15] the target is T1, Caspase-5. Nature of the assay: Selectivity interaction (Enzymatic assay) EUB0002198aAD CASP5.
Assay [16] deals with T3, Caspase-9. Nature of the assay: Selectivity interaction (Enzymatic assay) EUB0002198aAD CASP9.
The target of assay [17] is T4, Caspase-10. Described as §1. The source holds these as a separate data set.
In the next assay the target is Caspase-14 (Homo sapiens, UniProt P31944). Nature of the assay: Selectivity interaction (Enzymatic assay) EUB0002198aAD CASP14.
In assay [18] the target is T5, Histone-lysine N-methyltransferase 2A (Homo sapiens, UniProt Q03164). Nature of the assay: (§2) Selectivity interaction (Enzymatic assay) EUB0002166aAD MLL.
Assay [19] deals with T5, Histone-lysine N-methyltransferase 2A. The description is as §2. The source holds these as a separate data set.
For assay [20], the target named is T6, Chromobox protein homolog 2 (Homo sapiens, UniProt Q14781).
T6 sequence (Q14781 whole entry): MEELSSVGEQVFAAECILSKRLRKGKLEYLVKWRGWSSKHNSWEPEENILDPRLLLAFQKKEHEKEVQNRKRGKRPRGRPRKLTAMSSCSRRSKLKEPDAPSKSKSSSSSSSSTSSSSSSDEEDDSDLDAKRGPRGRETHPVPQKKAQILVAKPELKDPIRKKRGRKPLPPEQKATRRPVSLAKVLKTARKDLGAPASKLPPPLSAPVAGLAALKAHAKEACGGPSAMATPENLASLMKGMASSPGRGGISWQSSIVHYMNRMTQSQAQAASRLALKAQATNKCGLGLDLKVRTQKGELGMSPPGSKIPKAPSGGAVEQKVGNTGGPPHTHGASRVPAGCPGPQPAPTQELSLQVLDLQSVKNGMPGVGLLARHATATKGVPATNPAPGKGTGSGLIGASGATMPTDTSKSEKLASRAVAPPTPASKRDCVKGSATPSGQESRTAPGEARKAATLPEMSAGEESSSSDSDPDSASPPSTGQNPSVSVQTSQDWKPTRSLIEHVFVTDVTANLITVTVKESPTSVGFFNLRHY
Nature of the assay: Selectivity interaction (SPR) EUB0001090a CBX2.

Assay [21] deals with E3 SUMO-protein ligase CBX4 (Homo sapiens, UniProt O00257). Description: Selectivity interaction (SPR) EUB0001090a CBX4.
Assay [22] has as its target Chromobox protein homolog 6 (Homo sapiens, UniProt O95503). Description: Selectivity interaction (SPR) EUB0001090a CBX6.
The target of assay [23] is Chromobox protein homolog 8 (Homo sapiens, UniProt Q9HC52). Nature of the assay: Selectivity interaction (SPR) EUB0001090a CBX8.
Assay [24] concerns the target Chromodomain Y-like protein 2 (Homo sapiens, UniProt Q8N8U2). Description: Selectivity interaction (SPR) EUB0001090a CDYL2.

Where a SMILES comes first, the peptide text is derived from it. [ ]: non-standard residue; d: D form. The star is where a group is joined. Lys(Me,2-norbornyl) = CN(CCCC[C@H](N)C(=O)O)C1CC2CCC1C2; Benzoyl(4-tBu) = CC(C)(C)c1ccc(C(=O)*)cc1

T5 sequence (Q03164 1-2718 limits assumed): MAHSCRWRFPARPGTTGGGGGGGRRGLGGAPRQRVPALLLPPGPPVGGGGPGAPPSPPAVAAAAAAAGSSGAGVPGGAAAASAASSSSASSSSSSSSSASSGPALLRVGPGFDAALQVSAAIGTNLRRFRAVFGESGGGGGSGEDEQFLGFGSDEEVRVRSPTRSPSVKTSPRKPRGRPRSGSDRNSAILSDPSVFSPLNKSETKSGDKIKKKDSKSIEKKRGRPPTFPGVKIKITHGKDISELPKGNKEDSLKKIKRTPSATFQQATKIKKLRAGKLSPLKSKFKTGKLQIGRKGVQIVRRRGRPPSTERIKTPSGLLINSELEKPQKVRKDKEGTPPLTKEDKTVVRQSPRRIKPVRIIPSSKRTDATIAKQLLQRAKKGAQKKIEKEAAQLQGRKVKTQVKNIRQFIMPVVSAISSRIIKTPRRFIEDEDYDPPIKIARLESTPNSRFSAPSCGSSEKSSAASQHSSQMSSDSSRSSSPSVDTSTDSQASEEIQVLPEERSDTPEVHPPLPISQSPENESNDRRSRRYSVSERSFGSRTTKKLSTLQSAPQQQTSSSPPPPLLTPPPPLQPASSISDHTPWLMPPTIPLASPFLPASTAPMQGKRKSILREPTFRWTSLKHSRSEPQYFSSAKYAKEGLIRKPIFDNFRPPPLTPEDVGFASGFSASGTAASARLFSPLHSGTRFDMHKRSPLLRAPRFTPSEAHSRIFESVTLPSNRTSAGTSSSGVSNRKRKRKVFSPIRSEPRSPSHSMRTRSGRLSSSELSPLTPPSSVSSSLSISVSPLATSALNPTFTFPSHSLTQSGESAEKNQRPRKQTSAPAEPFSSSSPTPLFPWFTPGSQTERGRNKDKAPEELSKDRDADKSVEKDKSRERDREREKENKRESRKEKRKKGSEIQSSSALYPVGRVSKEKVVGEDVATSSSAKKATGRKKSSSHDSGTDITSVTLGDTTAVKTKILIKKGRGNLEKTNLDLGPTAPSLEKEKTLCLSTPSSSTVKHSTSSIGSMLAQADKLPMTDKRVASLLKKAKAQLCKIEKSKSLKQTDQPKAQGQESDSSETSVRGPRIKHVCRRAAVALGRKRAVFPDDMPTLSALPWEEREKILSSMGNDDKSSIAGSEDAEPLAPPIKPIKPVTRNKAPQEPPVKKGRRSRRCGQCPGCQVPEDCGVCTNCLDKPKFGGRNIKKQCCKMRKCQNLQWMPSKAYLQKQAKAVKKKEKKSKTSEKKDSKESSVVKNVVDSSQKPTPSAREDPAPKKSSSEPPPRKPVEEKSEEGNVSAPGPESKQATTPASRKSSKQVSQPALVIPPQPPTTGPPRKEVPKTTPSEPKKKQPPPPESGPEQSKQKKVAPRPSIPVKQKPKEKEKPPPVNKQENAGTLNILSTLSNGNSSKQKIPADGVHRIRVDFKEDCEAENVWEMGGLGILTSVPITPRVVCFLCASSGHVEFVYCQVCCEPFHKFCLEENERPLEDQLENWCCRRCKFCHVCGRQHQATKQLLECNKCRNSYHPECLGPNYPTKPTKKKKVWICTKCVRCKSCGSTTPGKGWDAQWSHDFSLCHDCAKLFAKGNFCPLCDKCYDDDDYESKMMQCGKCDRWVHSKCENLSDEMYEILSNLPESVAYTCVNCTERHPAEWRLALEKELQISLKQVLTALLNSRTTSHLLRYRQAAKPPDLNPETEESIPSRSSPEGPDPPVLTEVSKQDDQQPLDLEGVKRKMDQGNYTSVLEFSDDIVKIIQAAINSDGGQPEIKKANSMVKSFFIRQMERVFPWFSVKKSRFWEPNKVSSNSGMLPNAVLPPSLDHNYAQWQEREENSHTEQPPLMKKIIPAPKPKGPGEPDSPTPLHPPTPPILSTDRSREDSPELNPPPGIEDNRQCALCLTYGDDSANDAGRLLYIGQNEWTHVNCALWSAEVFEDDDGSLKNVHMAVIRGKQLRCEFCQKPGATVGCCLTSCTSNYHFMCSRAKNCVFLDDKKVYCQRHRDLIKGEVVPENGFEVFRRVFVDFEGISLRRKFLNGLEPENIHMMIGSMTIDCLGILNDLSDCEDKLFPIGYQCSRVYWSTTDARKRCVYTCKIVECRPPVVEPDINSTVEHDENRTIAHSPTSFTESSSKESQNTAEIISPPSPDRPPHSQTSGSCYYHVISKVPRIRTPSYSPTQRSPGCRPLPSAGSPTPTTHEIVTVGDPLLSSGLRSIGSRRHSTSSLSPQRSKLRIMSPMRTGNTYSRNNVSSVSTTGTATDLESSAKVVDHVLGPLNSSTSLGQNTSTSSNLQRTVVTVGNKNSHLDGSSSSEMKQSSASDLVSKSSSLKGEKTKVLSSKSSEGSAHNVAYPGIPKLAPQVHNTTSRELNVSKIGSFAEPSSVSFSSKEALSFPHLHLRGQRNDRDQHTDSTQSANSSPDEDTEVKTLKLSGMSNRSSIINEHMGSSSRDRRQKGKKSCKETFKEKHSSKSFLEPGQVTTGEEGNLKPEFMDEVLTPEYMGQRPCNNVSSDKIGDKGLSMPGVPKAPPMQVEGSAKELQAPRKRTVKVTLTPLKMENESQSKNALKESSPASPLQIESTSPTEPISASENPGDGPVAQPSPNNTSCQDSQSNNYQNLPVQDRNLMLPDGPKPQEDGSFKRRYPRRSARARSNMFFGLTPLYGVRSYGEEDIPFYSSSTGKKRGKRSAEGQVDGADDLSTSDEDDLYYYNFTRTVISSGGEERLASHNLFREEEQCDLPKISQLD
T5 sequence (Q03164 2719-3969 limits assumed): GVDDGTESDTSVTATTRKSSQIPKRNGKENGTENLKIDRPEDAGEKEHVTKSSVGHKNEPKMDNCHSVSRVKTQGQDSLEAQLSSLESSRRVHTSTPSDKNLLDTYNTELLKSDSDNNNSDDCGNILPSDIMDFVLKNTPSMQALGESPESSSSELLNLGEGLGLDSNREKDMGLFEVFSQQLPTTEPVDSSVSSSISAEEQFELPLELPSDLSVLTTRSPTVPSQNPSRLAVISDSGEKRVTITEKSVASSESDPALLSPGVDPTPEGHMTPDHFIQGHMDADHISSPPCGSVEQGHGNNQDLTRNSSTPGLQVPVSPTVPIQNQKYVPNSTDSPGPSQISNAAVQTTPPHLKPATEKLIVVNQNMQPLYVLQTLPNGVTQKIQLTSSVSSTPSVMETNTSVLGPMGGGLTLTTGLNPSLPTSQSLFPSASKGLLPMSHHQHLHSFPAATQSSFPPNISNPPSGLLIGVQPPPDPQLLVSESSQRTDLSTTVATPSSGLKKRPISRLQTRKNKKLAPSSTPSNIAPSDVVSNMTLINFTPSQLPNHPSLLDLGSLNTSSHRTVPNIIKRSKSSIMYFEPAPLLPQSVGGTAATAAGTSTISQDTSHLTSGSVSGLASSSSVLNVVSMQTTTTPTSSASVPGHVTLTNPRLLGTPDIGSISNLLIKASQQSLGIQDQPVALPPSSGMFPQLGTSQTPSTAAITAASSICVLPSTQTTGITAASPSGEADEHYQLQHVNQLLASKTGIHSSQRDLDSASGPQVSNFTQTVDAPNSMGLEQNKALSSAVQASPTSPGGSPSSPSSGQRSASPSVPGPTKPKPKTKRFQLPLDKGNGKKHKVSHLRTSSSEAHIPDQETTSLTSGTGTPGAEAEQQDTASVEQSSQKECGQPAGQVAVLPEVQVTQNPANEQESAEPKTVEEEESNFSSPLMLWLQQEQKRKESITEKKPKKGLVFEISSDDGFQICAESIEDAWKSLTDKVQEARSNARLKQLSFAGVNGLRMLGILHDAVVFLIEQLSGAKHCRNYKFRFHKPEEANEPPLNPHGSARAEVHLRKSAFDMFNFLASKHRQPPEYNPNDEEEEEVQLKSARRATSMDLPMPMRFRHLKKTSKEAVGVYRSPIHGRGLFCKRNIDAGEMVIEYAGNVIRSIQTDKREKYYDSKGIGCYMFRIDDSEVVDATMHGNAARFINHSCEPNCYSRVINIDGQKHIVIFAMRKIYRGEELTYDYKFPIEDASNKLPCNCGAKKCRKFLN
Chain of 5-hydroxytryptamine receptor 2A (P28223 whole entry): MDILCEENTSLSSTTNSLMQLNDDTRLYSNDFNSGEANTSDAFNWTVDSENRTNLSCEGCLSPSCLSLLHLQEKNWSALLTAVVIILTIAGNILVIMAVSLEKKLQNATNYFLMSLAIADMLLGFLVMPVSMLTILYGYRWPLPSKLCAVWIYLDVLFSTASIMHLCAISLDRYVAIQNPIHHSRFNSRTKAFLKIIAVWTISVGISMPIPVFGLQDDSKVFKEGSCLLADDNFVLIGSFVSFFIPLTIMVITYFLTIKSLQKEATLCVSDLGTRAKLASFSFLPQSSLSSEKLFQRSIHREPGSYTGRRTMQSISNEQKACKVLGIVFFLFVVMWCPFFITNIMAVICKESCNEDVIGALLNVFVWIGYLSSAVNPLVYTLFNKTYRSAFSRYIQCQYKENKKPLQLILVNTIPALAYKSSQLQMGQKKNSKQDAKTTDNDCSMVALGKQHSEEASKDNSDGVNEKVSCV
Chain of Chromobox protein homolog 8 (Q9HC52 whole entry): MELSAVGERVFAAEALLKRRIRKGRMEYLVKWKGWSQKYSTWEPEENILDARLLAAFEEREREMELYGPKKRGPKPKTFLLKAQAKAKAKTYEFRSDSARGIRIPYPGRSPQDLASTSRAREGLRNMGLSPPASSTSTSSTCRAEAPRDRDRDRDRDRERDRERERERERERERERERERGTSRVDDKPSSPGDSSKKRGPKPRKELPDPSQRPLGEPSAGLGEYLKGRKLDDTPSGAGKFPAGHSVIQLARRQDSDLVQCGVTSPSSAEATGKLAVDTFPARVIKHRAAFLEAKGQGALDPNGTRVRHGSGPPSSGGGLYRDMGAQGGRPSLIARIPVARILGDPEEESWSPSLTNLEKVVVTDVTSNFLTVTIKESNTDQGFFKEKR
Chain of Caspase-3 (P42574 29-175 limits assumed): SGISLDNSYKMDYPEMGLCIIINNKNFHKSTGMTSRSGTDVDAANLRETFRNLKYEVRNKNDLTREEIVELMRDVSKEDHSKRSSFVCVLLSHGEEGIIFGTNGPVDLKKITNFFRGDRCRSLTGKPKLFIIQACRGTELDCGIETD
Chain of Caspase-3 (P42574 176-277 limits assumed): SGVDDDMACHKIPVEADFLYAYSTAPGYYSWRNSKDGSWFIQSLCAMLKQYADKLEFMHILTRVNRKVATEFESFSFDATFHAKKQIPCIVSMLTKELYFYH

Regarding `COc1cc2c(NC3CCN(C(C)C)CC3)nc(C3CCCCC3)nc2cc1OCCCN1CCCC1`, the Inhibition of control in assay [1] is 64%; in [2], 90%; in [3], 69%. Moreover, the Ki in assay [4] was 1200 nM; in assay [5], 500 nM; in assay [6], 400 nM; in assay [7], 370 nM; in assay [8], 510 nM; in assay [9], 510 nM.
For the compound `CC(=O)N[C@@H](CC(C)C)C(=O)N[C@@H](CCC(=O)O)C(=O)N[C@H](C(=O)N[C@H](C=O)CC(=O)O)C(C)C` (Ac-LEVD-aldehyde), the IC50 against Caspase-2 was found to be 1700 nM; against Caspase-3 it was 57 nM; against Caspase-5 [10], 140 nM; against Caspase-6, 57 nM; at Caspase-7, 24 nM; against Caspase-8, 3.3 nM. The IC50 against Caspase-9 [11] was 2.1 nM; on Caspase-10 [12], 140 nM.
Turning to `CC(=O)N[C@@H](CC(C)C)C(=O)N[C@@H](CCC(=O)O)C(=O)N[C@@H](Cc1cnc[nH]1)C(=O)N[C@H](C=O)CC(=O)O` (Ac-LEHD-aldehyde), the IC50 against Caspase-10 [13] is 240 nM; at Caspase-10 [14] it was 240 nM; at Caspase-4, 81.7 nM; against Caspase-5 [15], 21.3 nM; against Caspase-9 [16] it was 49.2 nM; on Caspase-10 [17], 40.4 nM. In addition, the IC50 against Caspase-14 came out at 134 nM.
On to `Cc1nc(F)ccc1-c1cc(Cn2ccn(C)c2=N)cc(C(=O)NCc2ccc(Cl)c(Cl)c2)c1`, for which the IC50 in [18] and in assay [19] was 19.9 nM in each case.
Take `COC(=O)[C@H](CO)NC(=O)[C@H](CCCCN(C)C1CC2CCC1C2)NC(=O)[C@H](CC(C)C)NC(=O)[C@H](C)NC(=O)[C@H](Cc1ccccc1)NC(=O)c1ccc(C(C)(C)C)cc1` (stereo partly specified) ({Benzoyl(4-tBu)}-FAL[Lys(Me,2-norbornyl)]S-OMe): the Kd worked out at 1750 nM in assay [20]; 26.7 nM in [21]; 543 nM in assay [22]; 458 nM in assay [23]; 415 nM in assay [24].

The Ki is the dissociation constant of the complex between target and ligand, obtained from inhibition or displacement. A lower Ki goes with tighter binding. The IC50 is the midpoint of a concentration-inhibition curve. High values mean a need for much substance, low ones inhibition by little substance. For orientation: Kd means the free concentration of one partner at which half of the binding sites on the other are occupied at equilibrium, for simple one-to-one binding.
